The text below walks through data of patent publication US20210070748A1, “INHIBITORS OF BRUTONS TYROSINE KINASE” (Pharmacyclics LLC, priority 2015, published 2021).

What all share (format): biochemical
One test has as its target EGFR (Homo sapiens, UniProt P00533). In words: Inhibition of a panel of kinases, in vitro HotSpot kinase assay: EGFR. The note with it: Table 15, C compounds; 1 μM ATP. How it is done:
(§1) The degree of inhibition of a panel of kinases is determined using the in vitro HotSpot kinase assay (purified enzymes, ^33P-ATP, an appropriate substrate and 1 μM ATP).

For a further test, the target named is T1, TEC (Homo sapiens, UniProt P42680).
T1 sequence (P42680 1-631): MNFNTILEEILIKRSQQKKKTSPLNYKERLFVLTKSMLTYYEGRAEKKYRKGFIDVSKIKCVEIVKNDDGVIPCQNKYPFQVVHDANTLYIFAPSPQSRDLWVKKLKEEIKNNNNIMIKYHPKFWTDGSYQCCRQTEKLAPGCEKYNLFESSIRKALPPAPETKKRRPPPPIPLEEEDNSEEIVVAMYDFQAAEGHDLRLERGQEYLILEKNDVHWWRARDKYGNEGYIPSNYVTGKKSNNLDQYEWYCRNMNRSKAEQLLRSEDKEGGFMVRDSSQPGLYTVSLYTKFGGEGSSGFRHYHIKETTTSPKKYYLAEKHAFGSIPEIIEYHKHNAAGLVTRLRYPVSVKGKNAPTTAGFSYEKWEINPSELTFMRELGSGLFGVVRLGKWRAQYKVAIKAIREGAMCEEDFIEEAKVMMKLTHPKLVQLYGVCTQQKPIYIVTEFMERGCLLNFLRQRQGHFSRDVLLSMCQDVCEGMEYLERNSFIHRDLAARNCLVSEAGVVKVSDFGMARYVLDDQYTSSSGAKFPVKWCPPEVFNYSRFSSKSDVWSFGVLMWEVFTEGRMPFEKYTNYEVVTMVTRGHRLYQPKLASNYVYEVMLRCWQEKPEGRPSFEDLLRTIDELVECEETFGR
In words: Inhibition of a panel of kinases, in vitro HotSpot kinase assay: TEC. The note with it: Table 15, C compounds; 1 μM ATP. How it is done:
as §1

For the next test, the target named is T2, ITK (Homo sapiens, UniProt Q08881).
T2 sequence (Q08881 1-620): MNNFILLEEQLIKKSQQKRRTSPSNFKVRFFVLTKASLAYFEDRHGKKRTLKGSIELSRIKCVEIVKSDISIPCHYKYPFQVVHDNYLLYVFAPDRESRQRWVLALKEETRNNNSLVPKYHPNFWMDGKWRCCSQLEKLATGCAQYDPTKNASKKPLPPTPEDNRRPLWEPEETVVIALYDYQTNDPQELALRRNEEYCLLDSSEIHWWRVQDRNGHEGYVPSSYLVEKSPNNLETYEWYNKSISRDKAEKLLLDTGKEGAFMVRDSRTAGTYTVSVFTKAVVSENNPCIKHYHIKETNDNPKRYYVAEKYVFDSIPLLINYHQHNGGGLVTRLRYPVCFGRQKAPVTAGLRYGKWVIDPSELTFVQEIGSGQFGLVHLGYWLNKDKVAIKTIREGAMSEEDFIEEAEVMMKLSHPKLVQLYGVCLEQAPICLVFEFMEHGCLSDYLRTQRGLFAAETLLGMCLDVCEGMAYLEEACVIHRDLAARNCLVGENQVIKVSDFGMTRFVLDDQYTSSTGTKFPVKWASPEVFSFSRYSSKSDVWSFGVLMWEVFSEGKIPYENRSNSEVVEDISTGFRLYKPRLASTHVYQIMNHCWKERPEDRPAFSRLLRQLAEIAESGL
In words: Inhibition of a panel of kinases, in vitro HotSpot kinase assay: ITK. The note with it: Table 15, C compounds; 1 μM ATP. How it is done: as §1

Another test addresses T3, BTK-WT (Homo sapiens, UniProt Q06187).
T3 construct: purified from insect cells as a full-length construct containing an N-terminal 6X-His tag; His6 (N); made in house; host or cells: insect cells (baculovirus Sf21 in Method B)
In words: Btk in vitro inhibitory activity (one of Method A TR-FRET, Method B electrophoretic mobility shift, Method C radiometric filter binding). The conditions noted are these: Table 15, C compounds; read-out: IC50 BTK-WT. On the technique in general: Mobility shift assays separate free from complexed probe on a gel.

Another test has as its target T4, TXK (Homo sapiens, UniProt P42681).
T4 sequence (P42681 1-527): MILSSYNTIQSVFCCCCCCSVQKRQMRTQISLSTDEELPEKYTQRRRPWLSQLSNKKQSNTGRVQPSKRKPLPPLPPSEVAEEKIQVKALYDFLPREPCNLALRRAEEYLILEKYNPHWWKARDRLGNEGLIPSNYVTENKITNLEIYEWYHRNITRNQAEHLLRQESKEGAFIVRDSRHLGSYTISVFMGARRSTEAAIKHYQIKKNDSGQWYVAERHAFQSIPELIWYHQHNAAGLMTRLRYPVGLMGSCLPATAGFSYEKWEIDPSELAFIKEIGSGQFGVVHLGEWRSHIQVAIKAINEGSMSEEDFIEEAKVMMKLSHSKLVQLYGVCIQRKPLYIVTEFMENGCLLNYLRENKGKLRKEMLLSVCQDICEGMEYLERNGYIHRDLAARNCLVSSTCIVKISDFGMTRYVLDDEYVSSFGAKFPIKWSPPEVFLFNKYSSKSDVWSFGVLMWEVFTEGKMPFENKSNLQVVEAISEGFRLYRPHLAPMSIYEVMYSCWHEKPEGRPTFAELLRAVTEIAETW
In words: Inhibition of a panel of kinases, in vitro HotSpot kinase assay: TXK. The conditions noted are these: Table 15, C compounds; 1 μM ATP. On the procedure:
as §1

pIC50: −log10 of the molar value. A value given as a limit tells only on which side of the number the result lay.

T3 sequence (Q06187 whole entry): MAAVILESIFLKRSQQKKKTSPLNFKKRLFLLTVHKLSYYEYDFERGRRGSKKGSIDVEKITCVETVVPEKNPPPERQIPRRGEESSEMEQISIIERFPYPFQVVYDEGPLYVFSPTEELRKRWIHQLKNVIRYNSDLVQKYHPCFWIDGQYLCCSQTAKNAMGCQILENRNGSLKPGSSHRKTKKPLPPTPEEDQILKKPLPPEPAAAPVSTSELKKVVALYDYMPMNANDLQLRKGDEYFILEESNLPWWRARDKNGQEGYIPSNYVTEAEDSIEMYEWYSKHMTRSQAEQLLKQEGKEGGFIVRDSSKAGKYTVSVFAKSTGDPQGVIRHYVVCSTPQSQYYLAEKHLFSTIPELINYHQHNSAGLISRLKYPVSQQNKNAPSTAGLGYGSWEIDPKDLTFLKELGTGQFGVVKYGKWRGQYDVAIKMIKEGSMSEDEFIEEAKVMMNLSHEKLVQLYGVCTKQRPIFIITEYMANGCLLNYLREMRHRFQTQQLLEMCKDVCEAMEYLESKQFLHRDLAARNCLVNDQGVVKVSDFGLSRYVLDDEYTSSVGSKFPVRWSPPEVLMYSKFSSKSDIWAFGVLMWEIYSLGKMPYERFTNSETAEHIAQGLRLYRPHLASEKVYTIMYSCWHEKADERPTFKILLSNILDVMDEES
EGFR, sequence (P00533 25-1210): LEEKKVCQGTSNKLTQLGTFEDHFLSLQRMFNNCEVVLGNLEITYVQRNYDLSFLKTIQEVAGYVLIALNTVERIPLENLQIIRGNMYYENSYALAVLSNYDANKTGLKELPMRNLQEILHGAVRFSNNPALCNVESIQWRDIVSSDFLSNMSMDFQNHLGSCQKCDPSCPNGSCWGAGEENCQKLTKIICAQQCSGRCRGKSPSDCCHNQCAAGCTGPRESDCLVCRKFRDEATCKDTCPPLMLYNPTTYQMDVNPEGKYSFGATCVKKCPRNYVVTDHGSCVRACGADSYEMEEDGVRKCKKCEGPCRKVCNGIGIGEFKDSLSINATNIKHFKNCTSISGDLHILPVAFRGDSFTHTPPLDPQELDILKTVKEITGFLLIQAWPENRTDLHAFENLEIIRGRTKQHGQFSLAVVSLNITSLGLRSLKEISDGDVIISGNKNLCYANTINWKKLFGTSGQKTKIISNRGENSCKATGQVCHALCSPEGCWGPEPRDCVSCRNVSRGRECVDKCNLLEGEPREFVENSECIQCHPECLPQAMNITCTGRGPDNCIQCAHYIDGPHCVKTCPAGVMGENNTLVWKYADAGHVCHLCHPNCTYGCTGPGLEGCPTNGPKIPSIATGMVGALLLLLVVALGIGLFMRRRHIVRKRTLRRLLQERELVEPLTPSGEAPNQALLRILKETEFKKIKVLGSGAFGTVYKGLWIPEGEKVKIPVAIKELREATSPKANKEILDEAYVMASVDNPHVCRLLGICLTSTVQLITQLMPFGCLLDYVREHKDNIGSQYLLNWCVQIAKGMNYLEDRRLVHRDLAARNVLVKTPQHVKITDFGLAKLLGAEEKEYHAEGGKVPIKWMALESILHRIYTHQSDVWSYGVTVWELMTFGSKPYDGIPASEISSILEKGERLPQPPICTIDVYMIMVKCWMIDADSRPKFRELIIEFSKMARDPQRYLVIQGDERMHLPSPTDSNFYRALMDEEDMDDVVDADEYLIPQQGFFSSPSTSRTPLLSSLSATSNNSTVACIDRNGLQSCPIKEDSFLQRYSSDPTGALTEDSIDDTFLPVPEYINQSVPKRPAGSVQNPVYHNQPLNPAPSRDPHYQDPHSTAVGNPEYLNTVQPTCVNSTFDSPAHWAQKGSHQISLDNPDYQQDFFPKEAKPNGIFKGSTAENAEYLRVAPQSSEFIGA

A word on the pIC50: it is the negative decadic logarithm of the IC50, by convention in mol/L. In the case of `C=CC(=O)N1CCC[C@@H](Nc2nnc(C(N)=O)c(Nc3ccc(N4CCOCC4=O)cc3)n2)C1` [Example C-76, (R)-3-(1-acryloylpiperidin-3-ylamino)-5-(4-(3-oxomorpholino)phenyl-amino)-1,2,4-triazine-6-carboxamide], the pIC50 against EGFR was 7.00 to 8.00; against TEC, at least 8.00; at ITK, at least 8.00; at BTK-WT it was at least 8.00; on TXK, at least 8.00.
As to `C=CC(=O)N1CCC[C@@H](Nc2nnc(C(N)=O)c(Nc3cccc(-n4nccn4)c3)n2)C1` [Example C-75, (R)-5-(3-(2H-1,2,3-triazol-2-yl)phenylamino)-3-(1-acryloylpiperidin-3-ylamino)-1,2,4-triazine-6-carboxamide], the negative-log IC50 (pIC50) against EGFR was 7.00 to 8.00; at TEC it was at least 8.00; against ITK it was 7.00 to 8.00; on BTK-WT it was at least 8.00; at TXK, at least 8.00.
Turning to `C=CC(=O)N1CCC[C@@H](Nc2nnc(C(N)=O)c(Nc3ccc(-c4nccs4)cc3)n2)C1` [Example C-77, (R)-3-(1-acryloylpiperidin-3-ylamino)-5-(4-(thiazol-2-yl)phenylamino)-1,2,4-triazine-6-carboxamide], the pIC50 against EGFR was at least 8.00; against TEC, at least 8.00; on ITK it was 7.00 to 8.00; on BTK-WT, at least 8.00; on TXK it was at least 8.00.
As to `C=CC(=O)N1CCC[C@@H](Nc2nnc(C(N)=O)c(Nc3ccc(-c4ncco4)cc3)n2)C1` [Example C-51, (R)-3-(1-acryloylpiperidin-3-ylamino)-5-(4-(oxazol-2-yl)phenylamino)-1,2,4-triazine-6-carboxamide], the pIC50 at EGFR is at least 8.00; at TEC, at least 8.00; against ITK, 7.00 to 8.00; at BTK-WT, at least 8.00; against TXK, at least 8.00.
With `C=CC(=O)N1CCC[C@@H](Nc2nnc(C(N)=O)c(Nc3cccc(-c4ncccn4)c3)n2)C1` [Example C-71, (R)-3-(1-acryloylpiperidin-3-ylamino)-5-(3-(pyrimidin-2-yl)phenylamino)-1,2,4-triazine-6-carboxamide], the pIC50 on EGFR was 7.00 to 8.00; at TEC, at least 8.00; against ITK, 7.00 to 8.00; at BTK-WT it was at least 8.00; against TXK, at least 8.00.
Consider `C=CC(=O)N1CCC[C@@H](Nc2nnc(C(N)=O)c(Nc3ccc(S(C)(=O)=O)cc3)n2)C1` [Example C-59, (R)-3-(1-acryloylpiperidin-3-ylamino)-5-(4-(methylsulfonyl)phenyl-amino)-1,2,4-triazine-6-carboxamide], for which the pIC50 against EGFR, on TEC, on ITK, at BTK-WT and on TXK was at least 8.00 throughout.
For the molecule `C=CC(=O)N1CCC[C@@H](Nc2nnc(C(N)=O)c(Nc3ccc(-c4nn[nH]n4)cc3)n2)C1` [Example C-78, (R)-5-(4-(2H-tetrazol-5-yl)phenylamino)-3-(1-acryloylpiperidin-3-ylamino)-1,2,4-triazine-6-carboxamide], the pIC50 against EGFR is at least 8.00; against TEC, at least 8.00; against ITK, 7.00 to 8.00; on BTK-WT, at least 8.00; on TXK it was at least 8.00.
For `C=CC(=O)N1CCC[C@@H](Nc2nnc(C(N)=O)c(Nc3ccc(C4(C#N)CCCC4)cc3)n2)C1` [Example C-58, (R)-3-(1-acryloylpiperidin-3-ylamino)-5-(4-(1-cyanocyclopentyl)phenylamino)-1,2,4-triazine-6-carboxamide], the negative-log IC50 (pIC50) against EGFR, against TEC, at ITK, at BTK-WT and at TXK was at least 8.00 in each case.
Consider `C=CC(=O)N1CCC[C@@H](Nc2nnc(C(N)=O)c(Nc3cccc(-c4ncco4)c3)n2)C1` [Example C-79, (R)-3-(1-acryloylpiperidin-3-ylamino)-5-(3-(oxazol-2-yl)phenylamino)-1,2,4-triazine-6-carboxamide], for which the pIC50 was at least 8.00 against TEC, 7.00 to 8.00 at ITK, at least 8.00 on BTK-WT and at least 8.00 at TXK.
Consider `C=CC(=O)N1CCC[C@@H](Nc2nnc(C(N)=O)c(Nc3ccc4c(cnn4CC)c3)n2)C1` [Example C-80, (R)-3-(1-acryloylpiperidin-3-ylamino)-5-(1-ethyl-1H-indazol-5-ylamino)-1,2,4-triazine-6-carboxamide], for which the pIC50 against TEC, on ITK, at BTK-WT and against TXK was at least 8.00 throughout.
